# Data from patent publication US20230183388A1, “EXOPOLY[…] LACTIC ACID BACTERIUM AND USE THEREOF” (Asahi Kohsan Corporation, priority 2017, published 2023).
# Biological target: T1, hyaluronidase (Bos taurus, UniProt Q2YDK3)
# T1 sequence (Q2YDK3 36-553): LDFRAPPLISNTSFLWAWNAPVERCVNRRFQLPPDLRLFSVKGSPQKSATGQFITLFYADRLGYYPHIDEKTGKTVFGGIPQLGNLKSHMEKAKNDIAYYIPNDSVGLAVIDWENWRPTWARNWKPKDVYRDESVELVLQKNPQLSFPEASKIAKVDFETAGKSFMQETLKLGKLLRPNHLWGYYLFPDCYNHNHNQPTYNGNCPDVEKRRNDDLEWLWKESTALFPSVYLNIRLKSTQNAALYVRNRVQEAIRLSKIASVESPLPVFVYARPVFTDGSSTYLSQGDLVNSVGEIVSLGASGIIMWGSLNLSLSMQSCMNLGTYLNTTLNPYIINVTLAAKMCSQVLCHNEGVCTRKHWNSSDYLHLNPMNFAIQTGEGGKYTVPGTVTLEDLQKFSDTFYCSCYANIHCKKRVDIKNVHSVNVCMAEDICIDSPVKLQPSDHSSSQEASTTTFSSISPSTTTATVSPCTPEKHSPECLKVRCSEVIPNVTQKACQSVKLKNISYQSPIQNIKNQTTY
# Test: Hyaluronidase activity inhibition of exopolysaccharides
# Type: biochemical
# Conditions: hyaluronidase enzyme solution (MP Biomedicals), activated with Compound 48/80 and CaCl2, sodium hyaluronate substrate, pH 4.0, 37° C.
# Procedure: 5 μL of a hyaluronidase enzyme solution (MP Biomedicals, 4 mg/mL, 100 mM sodium acetate buffer (pH 4.0)) was added to 10 μL of an aqueous solution containing polysaccharides at an optional concentration, which was prepared from the polysaccharide sample containing the neutral polysaccharide fractions and the acidic polysaccharide fractions, the neutral polysaccharide fractions, and the acidic polysaccharide fractions, which were exopolysaccharides produced by the strain IJH-SONE68 and obtained in Example 4. The resultant mixture was incubated at 37° C. for 20 minutes. Thereafter, to the mixture, 10 μL of an enzyme-activating solution (0.5 mg/ml Compound 48/80 (manufactured by MP Biomedicals)), 3.75 mg CaCl2·2H2O, and 100 mM sodium acetate buffer (pH 4.0)) were added, and incubated again at 37° C. for 20 minutes. Subsequently, to the resultant mixture, 25 μL of a sodium hyaluronate solution (Wako Pure Chemical Industries, 0.8 mg/mL, 100 mM sodium acetate buffer (pH 4.0)) was added, and further reacted at 37° C. for 40 minutes. After the reaction, the reaction was terminated by adding 10 μL of 0.4 M NaOH aqueous solution. […] 40 μL of the reaction solution was mixed with 200 μL of p-DMAB solution (described below), the mixture was reacted at 37° C. for 20 minutes, and the absorbance at 585 nm was then measured. […]
compound,measurement,value
CC1(C)[C@@H](O[C@H]2O[C@H](C(=O)[O-])[C@@H](O)[C@H](O)[C@H]2O[C@@H]2O[C@H](C(=O)[O-])[C@@H](O)[C@H](O)[C@H]2O)CC[C@]2(C)[C@H]3C(=O)C=C4[C@@H]5C[C@@](C)(C(=O)O)CC[C@]5(C)CC[C@@]4(C)[C@]3(C)CC[C@@H]12.[K+].[K+] [Dipotassium glycyrrhizinate],IC50 (hyaluronidase activity inhibition),530 mg/L
